Consider one compound from patent publication US8232299B2, “Phthalimide derivatives that influence cellular vesicular systems, pharmaceutical compositions, and use thereof” (Avidin Kft., priority 2007, dated 2012).

Molecules are shown by their SMILES.

Assay [1] deals with TNFα. Briefly: early (preformed) TNFα secretion of RAW.264.7 macrophages, ELISA. The format is cell-based, mice. The text has this: Matured macrophages produce tumor necrosis factor (TNF-alpha or TNFα) in response to bacterial lipopolysaccharide (E. coli LPS, Sigma) stimulation. TNFα production is induced by […] to the toll-like receptor 4 (TLR-4), the lipopolysaccharide binding protein (LBP), and the CD14 receptor. Secretion of the TNFα is biphasic. For one hour after the stimulation macrophages respond with release of preformed TNFα. Meanwhile, the NF-kappaB signaling pathway turns on the TNFα gene transcription reaching maximum after approximately 8 hours.
In our experiments we investigated the early TNFα secretion of RAW.264.7 matured mice macrophages. This cell line stores large amount of preformed TNFα. […] Culture supernatant was collected and TNFα content was determined by R&D Duoset ELISA kit (detection limit<62.5 pg/ml). […] So the reduced TNFα level was due to inhibition of the release of preformed TNFα and not due to dying of the cells.
In this example two controls (diluent only—ethanol incubated) and four treated samples were analyzed.

Assay [2] deals with T1, SEC22b protein (Homo sapiens, UniProt O75396).
T1 sequence (O75396 1-215): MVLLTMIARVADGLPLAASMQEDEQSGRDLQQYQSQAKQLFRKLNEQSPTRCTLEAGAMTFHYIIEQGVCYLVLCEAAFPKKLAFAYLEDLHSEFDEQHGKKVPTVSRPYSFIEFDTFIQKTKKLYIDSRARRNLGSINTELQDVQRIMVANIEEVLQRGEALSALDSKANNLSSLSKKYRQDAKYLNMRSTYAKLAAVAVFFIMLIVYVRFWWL
Nature of the assay: binding to vesicle movement protein.

The subject of assay [3] is human melanoma (HT168M1). Briefly: spleen/liver animal model, melanoma cells injected into spleen. The format is in vivo, CB17/scid mice. As to the method: Studies were conducted in the spleen/liver animal model. From 40 adult male CB17/scid mice, born with immunodeficiency, 20 were randomly selected, and they were further divided into two groups. Animals were marked on their ear one by one. 10 of the selected mice were treated with compound 3b (40 mg/kg) for 5 days (PRETREATED/3b), the other 10 animals were treated per os by gavage with appropriate dilution of DMSO serving as the carrier (PRETREATED/control). On the 5th treatment day all the 40 animals were anesthetized by Nembutal (75 mg/kg), and 4×10^4 cells from human melanoma (HT168M1) was injected into their spleens (i.s.). Local bleeding during the implantation was treated with Gelaspon resorbable gelatin sponge. On the 7th day after the implantation the non-treated 20 mice were randomly assigned into two groups and their ear was marked. 10 mice were treated from this time on with compound 3b (40 mg/kg) (POSTTREATED/3b), the other 10 were treated with appropriate dilution of the carrier (DMSO) with similar frequency (POSTTREATED/control) per os once a day five times per week for three weeks. Pretreated groups were not treated after the implantation. Body weight changes were monitored once a week for each animal. 31 days after implantation animals were sacrificed by bleeding in Nembutal (75 mg/kg) anesthesia. […]

Consider `CCNc1c(F)c(F)c2c(c1F)C(=O)N(c1c(C(C)C)cccc1C(C)C)C2=O` [Compound 3b, 2-(2,6-diisopropylphenyl)-5-(ethylamino)-4,6,7-trifluoroisoindole-1,3-dione], for which the “LPS stimulated TNFα release of the macrophages” value in assay [1] (100 ng/ml LPS, FIG. 2b) is on record as “reduces the induced TNFα release”. Also, the “basal TNFα release of the macrophages” value in assay [1] (without LPS induction, FIG. 2a) is listed as “able to reduce the basal TNFα release”. Also, the “binding to SEC22b protein” value in assay [2] is recorded as “can also bind to SEC22b protein”. Also, the “further metastasis of the adhered cells” value in assay [3] (posttreatment 40 mg/kg per os from day 7, five times per week for three weeks, not statistically significant) is “slightly inhibited”. Also, the number of metastases result in assay [3] (pretreatment 40 mg/kg per os for 5 days before implantation, p=0.05, FIG. 7) is on record as “significantly reduced the number of metastases”.
